According to patent US4388320A, “3-Aminopropoxyaryl derivative in the treatment of tremor” (Sandoz Ltd., priority 1981, dated 1983):
“Also recorded” adds a separate entry of the source.

Assays:
[1] = known use; cited from earlier work
[2] = first clinical study, 6 patients with constant essential (familiary) tremor, 4 weeks (Table 1); format: in vivo
Procedure: In one clinical study 6 patients with constant essential (familiary) tremor were given for 4 weeks once-a-day in the morning a capsule containing 1 to 8 mg of the compound of formula I in hydrogen malonate form. The dosage was increased gradually over the first two weeks of the study.

[3] = further, similar clinical study, 4 patients with essential (familiary) tremor (Table 2); format: in vivo; conditions: 1 to 12 mg per day
Procedure: The result of a further, similar study with 4 patients with essential (familiary) tremor treated for 4 weeks with 1 to 12 mg per day of the compound of formula I in hydrogen malonate form is indicated in table 2: […]

[4] = another clinical study, 6 patients with essential (familiary) tremor (Table 3); format: in vivo; conditions: 4 to 12 mg per day
[5] = acute toxicity, mouse; conditions: in vivo, hydrogen malonate form
Source text: (§1) The tolerability of the compound was also studied using standard tests. For example, the acute toxicity of the compound of formula I in hydrogen malonate form is as follows: […]

[6] = acute toxicity, rat; conditions: in vivo, hydrogen malonate form
Source text: as §1

[7] = acute toxicity, rabbit; conditions: in vivo, hydrogen malonate form
Source text: as §1

[8] = tolerability and comparison with other agents in anti-tremor use; format: in vivo, patients
[9] = clinical observations, treatment of tremor (overall); format: in vivo, patients
[10] = system: adrenergic β-receptors; conditions: U.K. Patent Specification No. 1,575,510; cited from earlier work
[11] = U.K. Patent Specification No. 1,575,510; cited from earlier work
[12] = system: lipolysis and glycogenolysis induced by isoproterenol; conditions: U.K. Patent Specification No. 1,575,510; cited from earlier work
[13] = after 2 weeks, total 6 patients, capsule once-a-day, 1 to 8 mg, hydrogen malonate form
[14] = after 4 weeks, total 6 patients, capsule once-a-day, 1 to 8 mg, hydrogen malonate form
[15] = 4 patients, 4 weeks, hydrogen malonate form
[16] = 6 patients, 4 weeks, hydrogen malonate form

C=CCc1ccccc1OCC(O)CNC(C)C (stereo not shown) [alprenolol]
activity against tremor [1]: inactive

Cc1cc2c(OCC(CNC(C)(C)C)OC(=O)c3ccccc3)cccc2[nH]1 (stereo not shown) [compound of formula I, 4(2-benzoyloxy-3-tert-butylaminopropoxy)-2-methylindole]
improvement in tremor, benefit (in words) ([2]; 6 patients, 4 weeks, 1 to 8 mg once-a-day): all patients gained benefit; also recorded: the degree of improvement was either marked or moderate | Number of patients with marked (Ma) improvement after 2 weeks [2, 13]: 2 patients | Number of patients with moderate (Mo) improvement after 2 weeks [2, 13]: 4 patients | Number of patients with marked (Ma) improvement after 4 weeks [2, 14]: 3 patients | Number of patients with moderate (Mo) improvement after 4 weeks [2, 14]: 3 patients | hypotension and bradycardia ([2]; during treatment): No hypotension and no bradycardia | side effects ([2]; during treatment): remarkably free of side effects | duration of beneficial effect ([2]; once-a-day in the morning): the beneficial effect lasted the whole day | hypotension and bradycardia [3]: no hypotension and no bradycardia | side effects [3]: exceptionally few side effects | time to first observed improvement [3]: already after one week of treatment | time to maximum improvement [3]: 2 weeks | improvement (in words) ([3]; 4 patients, 4 weeks): marked improvement was observed in all 4 patients | Number of patients showing good improvement [3, 15]: 2 patients | Number of patients showing very good improvement [3, 15]: 2 patients | hypotension and bradycardia [4]: no hypotension and no bradycardia | improvement (in words) ([4]; 6 patients, 4 weeks): These results were confirmed; also recorded: very good or good improvement was observed in all patients | Number of patients showing good improvement [4, 16]: 3 patients | Number of patients showing very good improvement [4, 16]: 3 patients | LD50 ([5]; iv, read-out: LD50 i.v.): 11 mg/kg | LD50 ([5]; po, read-out: LD50 p.o.): 242 mg/kg | LD50 ([6]; iv, read-out: LD50 i.v.): 9 mg/kg | LD50 ([6]; po, read-out: LD50 p.o.): 1010 mg/kg | LD50 ([7]; iv, read-out: LD50 i.v.): 7 mg/kg | LD50 ([7]; po, read-out: LD50 p.o.): 334 mg/kg | hypotension or bradycardia ([8]; in vivo): not induce hypotension or bradycardia | influence on P-Q wave in the electrocardiogramm ([8]; in vivo): does not significantly influence the P-Q wave | overall safety ([8]; in vivo): exceptionally safe | effect on blood pressure and heart rate ([8]; patients with underlying hypertension or tachycardia): normalization of blood pressure and heart rate | onset of anti-tremor activity compared with anticholinergics ([8]; versus anticholinergics): more rapid onset of activity | tolerability compared with anticholinergics ([8]; versus anticholinergics): better tolerated than anticholinergics | tolerability compared with other β-adrenoceptor blocking agents ([8]; versus e.g. propranolol): better tolerated than other β-adrenoceptor blocking agents, e.g. propranolol | usefulness / improvement in treatment of tremor (in words) [9]: impressive improvement; also recorded: useful in the treatment of tremor, especially of essential (familiary) tremor | blocking effect on the adrenergic β-receptors [10]: blocking effect on the adrenergic β-receptors | antiarrhythmic effect [11]: antiarrhythmic effect | inhibition of lipolysis and glycogenolysis [12]: inhibit lipolysis and glycogenolysis induced by isoproterenol

C=CCOc1ccccc1OCC(O)CNC(C)C (stereo not shown) [oxprenolol]
activity against tremor [1]: inactive

CC(C)NCC(O)COc1cccc2ccccc12 (stereo not shown) [propranolol]
activity against tremor [1]: conflicting results

CC(C)(C)NC[C@H](O)COc1nsnc1N1CCOCC1 [timolol]
activity against tremor [1]: inactive
